Results from publication PMC5678585, “Screening a protein kinase inhibitor library against Plasmodium falciparum” (Malaria Journal, 2017).
Structures can show the parent of a compound that is named as a salt. Where two headings read alike, the source gives them in different places.

Experiments:
[1] = tested on: Plasmodium falciparum 3D7; assay: microbe, parasite or virus in culture; conditions: for inhibition at 5 µM: 3D7, read-out: Percentage inhibition of the growth of Plasmodium falciparum, Prestwick Library pilot screen, screening conc. 0.005 mM, duplicate; for LLE (ligand-lipophilicity efficiency) / EC50: Table 8, MMV03 SAR; for EC50: read-out: P. fal. EC50; for Percentage inhibition of the growth of Plasmodium falciparum: Prestwick Library pilot screen, duplicate; for inhibition at 6 µM: 3D7, read-out: Percentage inhibition of the growth of Plasmodium falciparum, Prestwick Library pilot screen, screening conc. 0.006 mM, duplicate; for inhibition at 8 µM: 3D7, read-out: Percentage inhibition of the growth of Plasmodium falciparum, Prestwick Library pilot screen, screening conc. 0.008 mM, duplicate
Method: Growth inhibition was quantified using a fluorescence assay utilizing the binding of SYBR Green I to double stranded DNA, which emits a fluorescent signal at 528 nm after excitation at 485 nm. The SYBR Green assay system was adapted to maximize robustness and to align with available automation systems. The Prestwick Library then used as a pilot screen to validate the performance of the optimized assay. […] Single point screens were carried out, and the potency of compounds of interest was determined in duplicate on two independent occasions. A 96-well [^3H]-Hypoxanthine incorporation assay was also developed as a secondary assay in order to validate key compounds from each hit series in an orthogonal platform.
(§1) All data were processed using IDBS ActivityBase. […] The formula used to calculate Z’ is 1-3×(StDev_high+StDev_low)/ABS(Mean_high-Mean_low) .
Two independent assays were run.

[2] = tested on: normal diploid human fibroblasts (MRC-5 pd30); assay: in vitro; assay type: cell-based
Method: Cells were plated and incubated overnight to allow them to adhere as monolayers. A working stock of each test compound was transferred to an intermediate 384-well plate and pre-diluted with minimum essential media (MEM). The pre-diluted stocks were then transferred onto the cell monolayers, and the plates were incubated for 68 h. Resazurin, to a final concentration of 50 μM was added to each well, after which plates were incubated for a further 3 h and measured for fluorescence (λ ex = 528 nm, λ em = 590 nm).
as §1
All EC50 Curve fitting was undertaken using XLFit version 4.2 using Model 205 with the following 4 parametric equation: y=A+B-A/1+[…], where A = % inhibition at bottom, B = % inhibition at top, C = EC50, D = slope, x = inhibitor concentration and y = % inhibition.

[3] = Plasmodium falciparum, 3D7, read-out: Percentage inhibition of the growth of Plasmodium falciparum, Prestwick Library pilot screen, screening conc. 0.004 mM, duplicate
[4] = Plasmodium falciparum, read-out: Percentage inhibition of the growth of Plasmodium falciparum
[5] = Table 8, MMV03 SAR, read-out: MRC5 EC50
[6] = Plasmodium falciparum, 3D7, read-out: Percentage inhibition of the growth of Plasmodium falciparum, Prestwick Library pilot screen, screening conc. 0.003 mM, duplicate
[7] = Plasmodium falciparum, 3D7, read-out: Percentage inhibition of the growth of Plasmodium falciparum, Prestwick Library pilot screen, screening conc. 0.007 mM, duplicate

Compound: COc1ccc(CCN2CCC(Nc3nc4ccccc4n3Cc3ccc(F)cc3)CC2)cc1 [Astemizole, reference compound]
- inhibition at 4 µM [1, 3]: 97.3 ± 0.8%

Compound: CCN(CC)CCCC(C)Nc1ccnc2cc(Cl)ccc12 (stereo not drawn) [Chloroquine diphosphate, reference compound]
- inhibition at 4 µM [1, 4]: 104 ± 1%

Compound: C[C@@H]1C[C@@H]([C@H](O)CC2CC(=O)NC(=O)C2)C(=O)[C@@H](C)C1 [Cycloheximide, reference compound]
- inhibition at 7 µM [1, 4]: 103.1 ± 0.1%

Compound: O=C1C(O)=C([C@H]2CC[C@H](c3ccc(Cl)cc3)CC2)C(=O)c2ccccc21 [Atovaquone, reference compound]
- inhibition at 5 µM ([1]; Plasmodium falciparum): 99 ± 2%

Compound: COc1ccc(C[C@H](N)C(=O)N[C@H]2[C@@H](O)[C@H](n3cnc4c(N(C)C)ncnc43)O[C@@H]2CO)cc1 [Puromycin dihydrochloride, reference compound]
- inhibition at 4 µM [1, 3]: 96 ± 5%

Compound: CCN(CC)CCNC(=O)c1cn(-c2ccccc2)nc1-c1cccs1 [Compound A0037]
- LLE (ligand-lipophilicity efficiency) [1]: 2.7
- EC50 [1]: 13 µM
- EC50 [2, 5]: 18 µM

Compound: Br.CC[C@H]1CN2CCC1C[C@H]2[C@H](O)c1ccnc2ccc(OC)cc12.O (stereo partly drawn) [Hydroquinine hydrobromide hydrate, reference compound]
- Percentage inhibition of the growth of Plasmodium falciparum ([1]; screening conc. 0.005 mM): 99 ± 2%

Compound: CN(CCCCCCCCCCN(C)C(=O)Oc1cccc([N+](C)(C)C)c1)C(=O)Oc1cccc([N+](C)(C)C)c1 [Demecarium bromide, reference compound]
- inhibition at 3 µM [1, 4]: 104 ± 2%

Compound: COc1ccc2cc3[n+](cc2c1OC)CCc1cc2c(cc1-3)OCO2 [Berberine chloride, reference compound]
- inhibition at 5 µM ([1]; Plasmodium falciparum): 99 ± 2%

Compound: CCCNCC(O)COc1ccccc1C(=O)CCc1ccccc1 (stereo not drawn) [Propafenone hydrochloride, reference compound]
- inhibition at 5 µM ([1]; Plasmodium falciparum): 99 ± 1%

Compound: Verteporfin [reference compound]
- Percentage inhibition of the growth of Plasmodium falciparum ([1]; screening conc. 0.003 mM): 95 ± 2%

Compound: COc1cccc2c1C(=O)c1c(O)c3c(c(O)c1C2=O)C[C@@](O)(C(=O)CO)C[C@@H]3O[C@H]1C[C@H](N)[C@H](O)[C@H](C)O1 [Doxorubicin hydrochloride, reference compound]
- inhibition at 3 µM [1, 6]: 137 ± 2%

Compound: C=C[C@H]1CN2CC[C@H]1C[C@@H]2[C@@H](O)c1ccnc2ccc(OC)cc12.Cl.O [Quinidine hydrochloride monohydrate, reference compound]
- Percentage inhibition of the growth of Plasmodium falciparum ([1]; screening conc. 0.005 mM): 100 ± 2%

Compound: CCCCCCCCNC(C)C(O)c1ccc(SC(C)C)cc1 (stereo not drawn) [Suloctidil, reference compound]
- inhibition at 6 µM ([1]; Plasmodium falciparum): 101 ± 1%

Compound: Cc1cc(NC(=O)c2cn(-c3ccccc3)nc2-c2cccs2)[nH]n1 [Compound A0012]
- LLE (ligand-lipophilicity efficiency) [1]: 1.9
- EC50 [1]: 6 µM
- EC50 [2, 5]: 24 µM

Compound: C[C@@H]1CC[C@H]2[C@@H](C)C(=O)O[C@@H]3O[C@@]4(C)CC[C@@H]1[C@]32OO4 [Artemisinin, reference compound]
- inhibition at 7 µM [1, 7]: 99.5 ± 0.1%
- Percentage inhibition of the growth of Plasmodium falciparum ([1]; screening conc. 0.007 mM): 100%

Compound: CCc1nc(N)nc(N)c1-c1ccc(Cl)cc1 [Pyrimethamine, reference compound]
- inhibition at 8 µM ([1]; Plasmodium falciparum): 101 ± 2%

Compound: CCN(CC)CCCC(C)Nc1c2ccc(Cl)cc2nc2ccc(OC)cc12 (stereo not drawn) [Quinacrine dihydrochloride dihydrate, reference compound]
- inhibition at 4 µM [1, 3]: 100 ± 2%

Compound: COc1cccc2c1C(=O)c1c(O)c3c(c(O)c1C2=O)C[C@@](O)(C(=O)CO)C[C@@H]3O[C@H]1C[C@H](N)[C@H](O)[C@H](C)O1 [doxorubicin, reference compound]
- EC50 ([2]; Homo sapiens, MRC5, MRC-5 counter-screen plates, read-out: potency range (standard reference compound)): 0.2 to 0.4 µM

Compound: [H]/N=C(\N/C(=N/[H])Nc1ccc(Cl)cc1)NC(C)C [Proguanil hydrochloride, reference compound]
- inhibition at 7 µM [1, 7]: 49 ± 4%

Compound: Nc1nc(N)c2nc(-c3ccccc3)c(N)nc2n1 [Triamterene, reference compound]
- inhibition at 8 µM ([1]; Plasmodium falciparum): 69 ± 1%

Compound: COc1cc2nc(N3CCN(C(=O)C4COc5ccccc5O4)CC3)nc(N)c2cc1OC (stereo not drawn) [Doxazosin mesylate, reference compound]
- inhibition at 4 µM [1, 3]: 84 ± 0.6%

Compound: CC[C@H]1CN2CCc3cc(OC)c(OC)cc3[C@@H]2C[C@@H]1C[C@H]1NCCc2cc(O)c(OC)cc21.Cl.Cl.O.O.O.O.O.O.O [Cephaeline dihydrochloride heptahydrate, reference compound]
- Percentage inhibition of the growth of Plasmodium falciparum ([1]; screening conc. 0.003 mM): 101 ± 3%

Compound: CCCCOc1ccc(CC(=O)NO)cc1 [Bufexamac, reference compound]
- inhibition at 9 µM ([1]; Plasmodium falciparum, 3D7, read-out: Percentage inhibition of the growth of Plasmodium falciparum, Prestwick Library pilot screen, screening conc. 0.009 mM, duplicate): 69 ± 2%

Compound: COc1c(C)c2c(c(O)c1C/C=C(\C)CCC(=O)O)C(=O)OC2 [Mycophenolic acid, reference compound]
- inhibition at 6 µM ([1]; Plasmodium falciparum): 63 ± 3%

Compound: CC(=O)O[C@H]1C(=O)[C@@]2(C)[C@H]([C@H](OC(=O)c3ccccc3)[C@]3(O)C[C@H](OC(=O)[C@H](O)[C@@H](NC(=O)c4ccccc4)c4ccccc4)C(C)=C1C3(C)C)[C@]1(OC(C)=O)CO[C@@H]1C[C@@H]2O [Paclitaxel, reference compound]
- inhibition at 2 µM ([1]; Plasmodium falciparum, 3D7, read-out: Percentage inhibition of the growth of Plasmodium falciparum, Prestwick Library pilot screen, screening conc. 0.002 mM, duplicate): 65 ± 2%

Compound: C=C[C@H]1C[N@@]2CC[C@H]1C[C@@H]2[C@@H](O)c1ccnc2ccccc12 [Cinchonine, reference compound]
- inhibition at 7 µM [1, 7]: 101 ± 5%

Compound: CN(Cc1cnc2nc(N)nc(N)c2n1)c1ccc(C(=O)N[C@@H](CCC(=O)O)C(=O)O)cc1 [Methotrexate, reference compound]
- inhibition at 4 µM [1, 3]: 100.9 ± 0.7%

Compound: [H]/N=C(\N/C(=N/[H])NCCCCCCNC(=N)NC(=N)Nc1ccc(Cl)cc1)Nc1ccc(Cl)cc1 [Chlorhexidine, reference compound]
- inhibition at 4 µM [1, 3]: 98 ± 1%

Compound: OC(c1cc(C(F)(F)F)nc2c(C(F)(F)F)cccc12)C1CCCCN1 (stereo not drawn) [Mefloquine hydrochloride, reference compound]
- inhibition at 5 µM ([1]; Plasmodium falciparum): 97.4 ± 0.4%

Compound: CN1C[C@H](CNC(=O)OCc2ccccc2)C[C@@H]2c3cccc4c3c(cn4C)C[C@H]21 [Metergoline, reference compound]
- inhibition at 5 µM ([1]; Plasmodium falciparum): 56 ± 2%

Compound: CCC(=O)O[C@]1(C(=O)CCl)[C@@H](C)C[C@H]2[C@@H]3CCC4=CC(=O)C=C[C@]4(C)[C@@]3(F)[C@@H](O)C[C@@]21C [Clobetasol propionate, reference compound]
- inhibition at 4 µM [1, 3]: 50 ± 16%

Compound: CCCCCCCCCCCCCCCC[N+](C)(C)CCN(Cc1ccc(OC)cc1)c1ncccn1 [Thonzonium bromide, reference compound]
- inhibition at 3 µM [1, 6]: 70 ± 1%

Compound: C[N+](C)(CCOc1ccccc1)Cc1ccccc1.O=C([O-])c1cc2ccccc2cc1O [Bephenium hydroxynaphthoate, reference compound]
- Percentage inhibition of the growth of Plasmodium falciparum ([1]; screening conc. 0.005 mM): 55.1 ± 0.5%

Compound: CC[C@H]1CN2CCc3cc(OC)c(OC)cc3[C@@H]2C[C@@H]1C[C@H]1NCCc2cc(OC)c(OC)cc21 [Emetine dihydrochloride, reference compound]
- inhibition at 4 µM [1, 3]: 103 ± 2%

Compound: N=C(N)c1ccc(OCCCCCOc2ccc(C(=N)N)cc2)cc1 [Pentamidine isethionate, reference compound]
- inhibition at 3 µM [1, 6]: 100 ± 4%

Compound: COc1cc(NC(C)CCCN)c2ncccc2c1 (stereo not drawn) [Primaquine diphosphate, reference compound]
- inhibition at 4 µM [1, 3]: 100 ± 4%

Compound: COc1cccc2c1C(=O)c1c(O)c3c(c(O)c1C2=O)C[C@@](O)(C(C)=O)C[C@@H]3O[C@H]1C[C@H](N)[C@H](O)[C@H](C)O1 [Daunorubicin hydrochloride, reference compound]
- inhibition at 4 µM [1, 4]: 132 ± 1%

Compound: COc1ccc2c(c1OC)CN1CCc3cc4c(cc3C1C2)OCO4 (stereo not drawn) [(d,l)-Tetrahydroberberine, reference compound]
- Percentage inhibition of the growth of Plasmodium falciparum ([1]; screening conc. 0.006 mM): 83 ± 2%

Compound: O=C1c2c(O)ccc(O)c2C(=O)c2c(NCCNCCO)ccc(NCCNCCO)c21 [Mitoxantrone dihydrochloride, reference compound]
- inhibition at 4 µM [1, 3]: 140 ± 2%

Compound: COc1ccc(C[C@H]2NC[C@H](O)[C@H]2OC(C)=O)cc1 [Anisomycin, reference compound]
- Percentage inhibition of the growth of Plasmodium falciparum ([1]; screening conc. 0.008 mM): 102 ± 2%

Compound: C[N+](C)(C)CCCCCCCCCC[N+](C)(C)C [Decamethonium bromide, reference compound]
- inhibition at 5 µM ([1]; Plasmodium falciparum): 64 ± 3%

Compound: C=C[C@H]1CN2CC[C@H]1C[C@H]2[C@H](O)c1ccnc2ccccc12 [(-)-Cinchonidine, reference compound]
- Percentage inhibition of the growth of Plasmodium falciparum ([1]; screening conc. 0.007 mM): 100 ± 1%
